Read-outs that look alike come from different tables or passages of the source. Some results are limits rather than exact numbers.

One assay concerns VCaP cells. Put plainly: VCaP growth inhibition assay (CTG). The following applies: Homo sapiens, 216 h, 30 pM R1881, 9 days. The format is cell-based. The procedure:
VCaP cells (ATCC Cat #CRL-2876) are plated at 1×10^4 cells per well of a white plastic 96-well cluster plate (Thermo Scientific Nunc Cat #165306) in 100 uL phenol red-free DMEM (Gibco Cat #21063-029) media with 5% CSS (Omega Scientific Cat #FB-04). Cluster plates are returned to the incubator (37*C/5% CO2) for 72 hours prior to treatment. Just prior to treatment, 100 uL of phenol red-free DMEM/5% CSS and 60 pM R1881 (Sigma Cat #R0908-10 mg) was added to each well of the cluster plates (Final R1881 concentration=30 pM). Compounds (200X) were added to each well in a volume of 1 uL, with serial dilutions (1:5) from 20 uM to 2 pM (final concentrations in well are 100 nM to 10 fM). Cluster plates are returned to the incubator for 9 days.
After the 9-day treatment period, media was removed from the cluster plates by inversion and 100 uL room temperature CTG reagent (Promega Cat #G7573) is added to each well. The cluster plates are placed on a shaker and incubated at room temperature for 20 minutes. Following this shaking/incubation, cluster plates are read on a luminometer (BMG ClarioStar). IC50 values are obtained by graphing the RLU data vs. compound concentration with nonlinear regression 4-parameter logistic curves (GraphPad Prism).

Another assay concerns the target AR / CBP ternary complex (Homo sapiens, UniProt P10275+Q92793). Put plainly: Ternary complex formation assay (sandwich ELISA, AR capture, CBP antibody detection) in VCaP cell lysates. Type of assay: cell-based. The procedure, abridged: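 VCaP cells in 5% charcoal-stripped FBS were cultured ≥3 days and then given bifunctional compound for 1.5 h. Lysates went onto AR-antibody-coated plates. Bound CBP (or p300) was detected with a rabbit antibody plus HRP anti-rabbit, using QuantaRed chemifluorescence (ex 570/em 585) read immediately, at 5 min and at 15 min.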
On the technique in general: ELISA stands for enzyme-linked immunosorbent assay.

The mark [1] stands for this setting: read-out: Average Ternary Complex, treated 1.5 hours, rabbit CBP or p300 antibody detection.
Where [2] appears, read: treated 1.5 hours, rabbit CBP or p300 antibody detection, average, read-out: Average Ternary Complex.

Sequence of AR / CBP ternary complex (P10275 whole entry): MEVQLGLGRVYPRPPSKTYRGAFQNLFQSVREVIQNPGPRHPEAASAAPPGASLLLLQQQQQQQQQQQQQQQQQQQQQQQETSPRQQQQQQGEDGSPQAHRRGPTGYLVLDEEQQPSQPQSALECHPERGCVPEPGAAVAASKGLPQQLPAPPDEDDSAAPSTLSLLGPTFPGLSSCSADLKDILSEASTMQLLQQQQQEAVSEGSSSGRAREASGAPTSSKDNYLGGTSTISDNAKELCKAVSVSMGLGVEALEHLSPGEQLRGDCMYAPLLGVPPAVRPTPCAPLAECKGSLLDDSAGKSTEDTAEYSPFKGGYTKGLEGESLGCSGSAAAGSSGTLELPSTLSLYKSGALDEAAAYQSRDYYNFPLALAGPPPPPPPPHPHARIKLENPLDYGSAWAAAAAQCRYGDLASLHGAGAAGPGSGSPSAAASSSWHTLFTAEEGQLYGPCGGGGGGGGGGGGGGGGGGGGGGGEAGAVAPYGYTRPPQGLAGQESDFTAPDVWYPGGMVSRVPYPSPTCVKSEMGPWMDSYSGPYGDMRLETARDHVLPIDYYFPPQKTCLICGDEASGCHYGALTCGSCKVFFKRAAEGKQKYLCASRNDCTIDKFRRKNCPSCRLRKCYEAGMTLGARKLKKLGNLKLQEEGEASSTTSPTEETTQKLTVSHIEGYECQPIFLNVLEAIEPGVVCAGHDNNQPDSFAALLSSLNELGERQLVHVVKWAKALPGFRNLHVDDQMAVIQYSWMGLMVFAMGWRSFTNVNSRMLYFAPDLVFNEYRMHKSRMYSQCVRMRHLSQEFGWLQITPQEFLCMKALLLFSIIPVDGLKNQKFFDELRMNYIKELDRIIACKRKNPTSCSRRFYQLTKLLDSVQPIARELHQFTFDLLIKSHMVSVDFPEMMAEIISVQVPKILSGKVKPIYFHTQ
Sequence of AR / CBP ternary complex (Q92793 2-2442): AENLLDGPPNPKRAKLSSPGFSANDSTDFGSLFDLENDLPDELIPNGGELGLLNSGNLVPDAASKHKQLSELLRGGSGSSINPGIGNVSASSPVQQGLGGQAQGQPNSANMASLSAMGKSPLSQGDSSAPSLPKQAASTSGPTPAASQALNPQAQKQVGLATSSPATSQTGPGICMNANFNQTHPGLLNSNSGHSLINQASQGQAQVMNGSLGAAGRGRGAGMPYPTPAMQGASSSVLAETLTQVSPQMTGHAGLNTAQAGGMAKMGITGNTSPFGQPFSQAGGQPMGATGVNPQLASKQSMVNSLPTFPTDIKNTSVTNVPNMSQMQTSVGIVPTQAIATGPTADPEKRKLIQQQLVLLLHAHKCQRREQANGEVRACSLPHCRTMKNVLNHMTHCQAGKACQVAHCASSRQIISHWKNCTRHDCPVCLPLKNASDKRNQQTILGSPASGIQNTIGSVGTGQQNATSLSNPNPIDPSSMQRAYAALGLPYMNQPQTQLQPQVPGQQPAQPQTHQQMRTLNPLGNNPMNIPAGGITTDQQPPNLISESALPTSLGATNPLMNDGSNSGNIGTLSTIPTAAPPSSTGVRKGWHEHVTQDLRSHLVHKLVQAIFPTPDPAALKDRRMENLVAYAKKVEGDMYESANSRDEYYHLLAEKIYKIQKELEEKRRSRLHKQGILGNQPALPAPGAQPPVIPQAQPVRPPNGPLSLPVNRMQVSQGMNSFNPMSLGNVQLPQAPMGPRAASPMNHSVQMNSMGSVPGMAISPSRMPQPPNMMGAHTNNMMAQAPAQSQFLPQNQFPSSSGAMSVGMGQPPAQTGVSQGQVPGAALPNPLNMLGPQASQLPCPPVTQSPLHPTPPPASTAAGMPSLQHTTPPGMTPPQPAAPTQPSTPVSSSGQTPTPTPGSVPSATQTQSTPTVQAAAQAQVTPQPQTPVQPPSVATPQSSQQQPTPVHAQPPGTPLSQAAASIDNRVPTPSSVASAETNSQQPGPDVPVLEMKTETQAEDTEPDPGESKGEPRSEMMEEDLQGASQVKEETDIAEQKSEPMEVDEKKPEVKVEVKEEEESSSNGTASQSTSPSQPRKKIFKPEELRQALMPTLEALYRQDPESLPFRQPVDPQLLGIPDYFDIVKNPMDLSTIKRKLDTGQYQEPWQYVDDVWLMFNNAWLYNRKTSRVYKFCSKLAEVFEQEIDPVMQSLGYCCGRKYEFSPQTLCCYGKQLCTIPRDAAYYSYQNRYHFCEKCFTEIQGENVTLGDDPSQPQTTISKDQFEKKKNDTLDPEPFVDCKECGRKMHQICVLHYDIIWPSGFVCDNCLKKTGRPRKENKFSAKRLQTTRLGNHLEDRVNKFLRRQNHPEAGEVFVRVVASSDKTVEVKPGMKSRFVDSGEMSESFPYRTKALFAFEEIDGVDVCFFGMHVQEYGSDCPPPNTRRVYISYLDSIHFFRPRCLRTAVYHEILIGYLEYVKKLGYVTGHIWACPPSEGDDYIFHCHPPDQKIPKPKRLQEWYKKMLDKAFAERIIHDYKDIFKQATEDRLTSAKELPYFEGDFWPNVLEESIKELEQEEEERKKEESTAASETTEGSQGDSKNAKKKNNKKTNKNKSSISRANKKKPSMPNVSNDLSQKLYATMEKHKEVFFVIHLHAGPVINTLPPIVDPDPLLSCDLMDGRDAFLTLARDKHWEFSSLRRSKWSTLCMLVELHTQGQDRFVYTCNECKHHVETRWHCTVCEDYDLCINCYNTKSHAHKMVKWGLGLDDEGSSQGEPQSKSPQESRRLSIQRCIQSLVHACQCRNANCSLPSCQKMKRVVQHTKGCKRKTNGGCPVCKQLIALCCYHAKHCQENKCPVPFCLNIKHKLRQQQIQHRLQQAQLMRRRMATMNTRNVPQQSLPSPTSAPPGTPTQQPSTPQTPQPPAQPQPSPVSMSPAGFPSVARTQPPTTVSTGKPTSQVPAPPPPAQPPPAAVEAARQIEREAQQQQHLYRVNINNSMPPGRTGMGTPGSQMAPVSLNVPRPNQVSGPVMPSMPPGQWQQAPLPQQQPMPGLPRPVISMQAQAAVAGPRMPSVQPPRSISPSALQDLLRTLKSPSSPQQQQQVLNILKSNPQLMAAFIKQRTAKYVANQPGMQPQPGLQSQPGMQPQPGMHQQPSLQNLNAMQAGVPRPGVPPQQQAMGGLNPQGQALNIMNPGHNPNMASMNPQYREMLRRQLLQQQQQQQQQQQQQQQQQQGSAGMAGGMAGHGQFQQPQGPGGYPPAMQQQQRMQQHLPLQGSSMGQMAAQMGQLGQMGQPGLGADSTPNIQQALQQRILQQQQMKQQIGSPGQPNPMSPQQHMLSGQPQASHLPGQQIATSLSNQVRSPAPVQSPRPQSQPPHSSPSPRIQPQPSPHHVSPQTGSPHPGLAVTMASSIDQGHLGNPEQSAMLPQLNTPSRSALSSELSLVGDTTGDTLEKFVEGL

By IC50 is commonly meant the concentration that inhibits the measured activity by half. High values mean a need for much substance, low ones inhibition by little substance. Take `CC(=O)N1CCc2c(c(N3CCCc4cc(-c5cnn(C)c5)c(C(F)F)cc43)nn2C2CCN(C(=O)COC3CCN(c4ccc(C(=O)N[C@H]5CC[C@H](N(C)c6ccc(C#N)c(Cl)c6)CC5)cc4)CC3)CC2)C1` [Compound 12, 4-[4-[2-[4-[5-acetyl-3-[7-(difluoromethyl)-6-(1-methylpyrazol-4-yl)-3,4-dihydro-2H-quinolin-1-yl]-6,7-dihydro-4H-pyrazolo[4,3-c]pyridin-1-yl]-1-piperidyl]-2-oxo-ethoxy]-1-piperidyl]-N-[4-(3-chloro-4-cyano-N-methyl-anilino)cyclohexyl]benzamide]: the IC50 in the assay on VCaP cells is no more than 0.1 nM. In addition, the EC50 at AR / CBP ternary complex (setting [1]) is less than 1 nM.
The corresponding values for `CC(=O)N1CCc2c(c(N3CCCc4cc(-c5cnn(C)c5)c(C(F)F)cc43)nn2C2CCN(C(=O)CC3CCN(c4ccc(C(=O)N[C@H]5CC[C@H](N(C)c6ccc(C#N)c(Cl)c6)CC5)cc4)CC3)CC2)C1` [Compound 13, 4-[4-[2-[4-[5-acetyl-3-[7-(difluoromethyl)-6-(1-methylpyrazol-4-yl)-3,4-dihydro-2H-quinolin-1-yl]-6,7-dihydro-4H-pyrazolo[4,3-c]pyridin-1-yl]-1-piperidyl]-2-oxo-ethyl]-1-piperidyl]-N-[4-(3-chloro-4-cyano-N-methyl-anilino)cyclohexyl]benzamide] are 0.1 to 1 nM and less than 1 nM.
As for `CC(=O)N1CCc2c(c(N3CCCc4cc(-c5cnn(C)c5)c(C(F)F)cc43)nn2C2CCN(C(=O)CC3CCN(c4ccc(C(=O)N[C@H]5CC[C@H](Oc6ccc(C#N)c(Cl)c6)CC5)nn4)CC3)CC2)C1` [Compound 14, 6-[4-[2-[4-[5-acetyl-3-[7-(difluoromethyl)-6-(1-methylpyrazol-4-yl)-3,4-dihydro-2H-quinolin-1-yl]-6,7-dihydro-4H-pyrazolo[4,3-c]pyridin-1-yl]-1-piperidyl]-2-oxo-ethyl]-1-piperidyl]-N-[4-(3-chloro-4-cyano-phenoxy)cyclohexyl]pyridazine-3-carboxamide], the IC50 with VCaP cells was no more than 0.1 nM. In addition, on AR / CBP ternary complex (setting [2]), the EC50 is less than 1 nM.
In turn, `CC(=O)N1CCc2c(c(N3CCCc4cc(-c5cnn(C)c5)c(C(F)F)cc43)nn2C2CCN(CC3CCN(c4ccc(C(=O)N[C@H]5CC[C@H](Oc6ccc(C#N)c(Cl)c6)CC5)nn4)CC3)CC2)C1` [Compound 16, 6-[4-[[4-[5-acetyl-3-[7-(difluoromethyl)-6-(1-methylpyrazol-4-yl)-3,4-dihydro-2H-quinolin-1-yl]-6,7-dihydro-4H-pyrazolo[4,3-c]pyridin-1-yl]-1-piperidyl]methyl]-1-piperidyl]-N-[4-(3-chloro-4-cyano-phenoxy)cyclohexyl]pyridazine-3-carboxamide] registered an IC50 in the assay on VCaP cells of no more than 0.1 nM. Besides, the EC50 on AR / CBP ternary complex (setting [2]) is less than 1 nM.
Taken in the same sequence, the figures for `CC(=O)N1CCc2c(c(N3CCCc4cc(-c5cnn(C)c5)c(C(F)F)cc43)nn2C2CCN(CC3CCN(c4ccc(C(=O)N[C@H]5CC[C@H](Oc6ccc(C#N)c(Cl)c6)CC5)cn4)CC3)CC2)C1` [Compound 18, 6-[4-[[4-[5-acetyl-3-[7-(difluoromethyl)-6-(1-methylpyrazol-4-yl)-3,4-dihydro-2H-quinolin-1-yl]-6,7-dihydro-4H-pyrazolo[4,3-c]pyridin-1-yl]-1-piperidyl]methyl]-1-piperidyl]-N-[4-(3-chloro-4-cyano-phenoxy)cyclohexyl]pyridine-3-carboxamide] were no more than 0.1 nM and less than 1 nM.
Taken in the same sequence, the figures for `CC(=O)N1CCc2c(c(-c3cccc4cc(-c5ccc(CC6CCN(c7ccc(C(=O)N[C@H]8CC[C@H](Oc9ccc(C#N)c(Cl)c9)CC8)nn7)CC6)nc5)ncc34)nn2C)C1` [Compound 19, 6-[4-[[5-[8-(5-acetyl-1-methyl-6,7-dihydro-4H-pyrazolo[4,3-c]pyridin-3-yl)-3-isoquinolyl]-2-pyridyl]methyl]-1-piperidyl]-N-[4-(3-chloro-4-cyano-phenoxy)cyclohexyl]pyridazine-3-carboxamide] were no more than 0.1 nM and greater than 100 nM.
Turning to `CC(=O)N1CCc2c(c(-c3cccc4cc(-c5ccc(CCC6CCN(c7ccc(C(=O)N[C@H]8CC[C@H](Oc9ccc(C#N)c(Cl)c9)CC8)nn7)CC6)nc5)ncc34)nn2C)C1` [Compound 20, 6-[4-[2-[5-[8-(5-acetyl-1-methyl-6,7-dihydro-4H-pyrazolo[4,3-c]pyridin-3-yl)-3-isoquinolyl]-2-pyridyl]ethyl]-1-piperidyl]-N-[4-(3-chloro-4-cyano-phenoxy)cyclohexyl]pyridazine-3-carboxamide], in the assay on VCaP cells, the IC50 was no more than 0.1 nM. Further, the EC50 on AR / CBP ternary complex (setting [2]) was less than 1 nM.
Compound `CC(=O)N1CCc2c(c(-c3cccc4cc(-c5ccc(COCC6CCN(c7ccc(C(=O)N[C@H]8CC[C@H](Oc9ccc(C#N)c(Cl)c9)CC8)nn7)CC6)nc5)ncc34)nn2C)C1` [Compound 21, 6-[4-[[5-[8-(5-acetyl-1-methyl-6,7-dihydro-4H-pyrazolo[4,3-c]pyridin-3-yl)-3-isoquinolyl]-2-pyridyl]methoxymethyl]-1-piperidyl]-N-[4-(3-chloro-4-cyano-phenoxy)cyclohexyl]pyridazine-3-carboxamide] gave an IC50 in the assay with VCaP cells of no more than 0.1 nM. Further, at AR / CBP ternary complex (setting [2]), the EC50 was less than 1 nM.
Taken in the same sequence, the figures for `CC(=O)N1CCc2c(c(-c3cccc4cc(-c5cnn(CC6CCN(c7ccc(C(=O)N[C@H]8CC[C@H](Oc9ccc(C#N)c(Cl)c9)CC8)nn7)CC6)c5)ncc34)nn2C2CCOCC2)C1` [Compound 22, 6-[4-[[4-[8-(5-acetyl-1-tetrahydropyran-4-yl-6,7-dihydro-4H-pyrazolo[4,3-c]pyridin-3-yl)-3-isoquinolyl]pyrazol-1-yl]methyl]-1-piperidyl]-N-[4-(3-chloro-4-cyano-phenoxy)cyclohexyl]pyridazine-3-carboxamide] were no more than 0.1 nM and less than 1 nM.
In the case of `CC(=O)N1CCc2c(c(-c3cccc4cc(-c5ccc(CC6CCN(c7ccc(C(=O)N[C@H]8CC[C@H](Oc9ccc(C#N)c(Cl)c9)CC8)nn7)CC6)nc5)ncc34)nn2C2CCOCC2)C1` [Compound 23, 6-[4-[[5-[8-(5-acetyl-1-tetrahydropyran-4-yl-6,7-dihydro-4H-pyrazolo[4,3-c]pyridin-3-yl)-3-isoquinolyl]-2-pyridyl]methyl]-1-piperidyl]-N-[4-(3-chloro-4-cyano-phenoxy)cyclohexyl]pyridazine-3-carboxamide], the IC50 with VCaP cells is 0.1 to 1 nM. Moreover, the EC50 on AR / CBP ternary complex (setting [2]) is less than 1 nM.
In the assay on VCaP cells, `CC(=O)N1CCc2c(c(-c3cccc4cc(-c5ccc(CCC6CCN(c7ccc(C(=O)N[C@H]8CC[C@H](Oc9ccc(C#N)c(Cl)c9)CC8)nn7)CC6)nc5)ncc34)nn2C2CCOCC2)C1` [Compound 25, 6-[4-[2-[5-[8-(5-acetyl-1-tetrahydropyran-4-yl-6,7-dihydro-4H-pyrazolo[4,3-c]pyridin-3-yl)-3-isoquinolyl]-2-pyridyl]ethyl]-1-piperidyl]-N-[4-(3-chloro-4-cyano-phenoxy)cyclohexyl]pyridazine-3-carboxamide] returned an IC50 of no more than 0.1 nM. The EC50 on AR / CBP ternary complex (setting [2]) is less than 1 nM.
Taken in the same sequence, the figures for `CC(=O)N1CCc2c(c(-c3cccc4cc(-c5cnn(CCOC6CCN(c7ccc(C(=O)N[C@H]8CC[C@H](Oc9ccc(C#N)c(Cl)c9)CC8)nn7)CC6)c5)ncc34)nn2C2CCOCC2)C1` [Compound 26, 6-[4-[2-[4-[8-(5-acetyl-1-tetrahydropyran-4-yl-6,7-dihydro-4H-pyrazolo[4,3-c]pyridin-3-yl)-3-isoquinolyl]pyrazol-1-yl]ethoxy]-1-piperidyl]-N-[4-(3-chloro-4-cyano-phenoxy)cyclohexyl]pyridazine-3-carboxamide] were no more than 0.1 nM and less than 1 nM.
Compound `CC(=O)N1CCc2c(c(-c3cccc4cc(-c5ccc(CCOC6CCN(c7ccc(C(=O)N[C@H]8CC[C@H](Oc9ccc(C#N)c(Cl)c9)CC8)nn7)CC6)nc5)ncc34)nn2C2CCOCC2)C1` [Compound 27, 6-[4-[2-[5-[8-(5-acetyl-1-tetrahydropyran-4-yl-6,7-dihydro-4H-pyrazolo[4,3-c]pyridin-3-yl)-3-isoquinolyl]-2-pyridyl]ethoxy]-1-piperidyl]-N-[4-(3-chloro-4-cyano-phenoxy)cyclohexyl]pyridazine-3-carboxamide] yielded an IC50 with VCaP cells of 0.1 to 1 nM. For the same compound, the EC50 at AR / CBP ternary complex (setting [2]) is less than 1 nM.
Taken in the same sequence, the figures for `CC(=O)N1CCc2c(c(-c3cccc4cc(-c5ccc(CCN6CCN(c7ccc(C(=O)N[C@H]8CC[C@H](Oc9ccc(C#N)c(Cl)c9)CC8)nn7)CC6)nc5)ncc34)nn2C2CCOCC2)C1` [Compound 28, 6-[4-[2-[5-[8-(5-acetyl-1-tetrahydropyran-4-yl-6,7-dihydro-4H-pyrazolo[4,3-c]pyridin-3-yl)-3-isoquinolyl]-2-pyridyl]ethyl]piperazin-1-yl]-N-[4-(3-chloro-4-cyano-phenoxy)cyclohexyl]pyridazine-3-carboxamide] were no more than 0.1 nM and less than 1 nM.

Source of the values: US20250136578A1 (Kolm Therapeutics Inc., priority 2023, published 2025).
